{"source": "patent US20230332232A1", "about": "“COMPOSITIONS AND METHODS FOR DIAGNOSING AND TREATING A DYSTONIA” (Duke University, priority 2020, published 2023)", "system": "DYT1 knockin (Tor1a^delGAG/+) murine embryonic fibroblasts (MEFs)", "assay": "Untargeted LC/MS/MS proteomics of EVs from DYT1 MEFs exposed 24 hours to drug, compared with untreated DYT1 (Het) MEFs", "type": "cell-based, mouse", "method": "Methods for isolation and purification of exosomes and extracellular vesicles (EV) were extensively reviewed. Experiments were performed to arrive at a robust and reproducible protocol. The protocol used herein is that set forth in Théry et al, 2006, which is incorporated by reference for it teaching of this protocol. This protocol involves depleting serum-derived EVs from cell culture media by overnight ultracentrifugation and exchanging media for 1% FBS EV-depleted media. Media is then collected from cells following a 24-hour conditioning period and EVs are isolated by 18-hour ultracentrifugation at 100,000 g (FIG. 1A).\nEVs were isolated from media of cultured murine embryonic fibroblasts (MEFs) prepared in-house according to protocols described by Xu 2005 from DYT1 knockin mice (Tor1a^delGAG/+) (Goodchild R E, et al. (2005) Neuron. 48:923-932) and littermate wild-type (WT) controls. The cultured MEFs from the DYT1 mice were exposed for 24 hours to Ritonavir (RTV) while the MEFs from WT mice were exposed to vehicle, ISRIB, or Salubrinal (SAL). The EVs isolated from these WT cells and DYT1 were characterized by untargeted proteomics and RNA-seq to identify differentially expressed proteins and RNAs as candidate biomarkers. Experimenter and Proteomics core staff were blinded to genotype of cell cultures throughout preparation and analysis phases.\nSamples were first normalized to 20 μg and spiked with undigested casein at a total of 40 fmol/μg, 80 fmol/μg, or 160 fmol/μg, then reduced with 10 mM dithiolthreitol for 30 minute at 80° C. and alkylated with 20 mM iodoacetamide for 30 minutes at room temperature. Next, the samples were supplemented with a final concentration of 1.2% phosphoric acid and 741 μL of S-Trap (Protifi) binding buffer (90% MeOH/100 mM […]). Proteins were trapped on the S-Trap, digested using 20 ng/μL sequencing grade trypsin (Promega) for 1 hour at 47° C., and eluted using 50 mM TEAB, followed by 0.2% FA, and lastly using 50% CAN/0.2% FA. All samples were then lyophilized to dryness and resuspended in 40 μL 1% TFA/2% acetonitrile containing 12.5 fmol/μL yeast alcohol dehydrogenase (ADH_YEAST). A QC Pool was created from 3 uL of each sample. All QC Pools were run periodically throughout the acquisition period.\nQuantitative LC/MS/MS was performed on 2 μL of each sample, using a nanoAcquity UPLC system (Waters Corp) coupled to a Thermo Orbitrap Fusion Lumos high resolution accurate mass tandem mass spectrometer (Thermo) via a nanoelectrospray ionization source. Briefly, the sample was first trapped on a Symmetry C18 20 mm×180 μm trapping column (5 μL/min at 99.9/0.1 v/v water/acetonitrile), after which the analytical separation was performed using a 1.8 μm Acquity HSS T3 C18 75 μm×250 mm column (Waters Corp.) with a 90 minute linear gradient of 5% to 30% acetonitrile with 0.1% formic acid at a flow rate of 400 nanoliters/minute (nL/min) with a column temperature of 55° C. Data collection on the Fusion Lumos mass spectrometer was performed in a data-dependent acquisition (DDA) mode of acquisition with a r=120,000 (@ m/z 200) full MS scan from m/z 375-1500 with a target AGC value of 2e5 ions. MS/MS scans were acquired at Rapid scan rate (Ion Trap) with an AGC target of 5e3 ions and a max injection time of 100 ms. The total cycle time for MS and MS/MS scans was 2 seconds. A 20 second dynamic exclusion was employed to increase depth of coverage. The total analysis cycle time for each sample injection was approximately 2 hours.", "data": [{"smiles": "CC(C)c1nc(CN(C)C(=O)N[C@H](C(=O)N[C@@H](Cc2ccccc2)C[C@H](O)[C@H](Cc2ccccc2)NC(=O)OCc2cncs2)C(C)C)cs1", "note": "[RTV, Ritonavir]", "values": [{"measurement": "Abs Z Score Sum (Geno + RTV)", "setting": "EV protein Mtap (Q9CQ65)", "result": 8.12}, {"measurement": "RTV Direction Opposite dE?", "setting": "EV protein Myo18a", "result": "yes"}, {"measurement": "Abs Z Score Sum (Geno + RTV)", "setting": "EV protein Myo18a (Q9JM..)", "result": 7.78}, {"measurement": "Abs Z Score Sum (Geno + RTV)", "setting": "EV protein Nap114 Q78ZA7", "result": 50.77}, {"measurement": "Abs Z Score Sum (Geno + RTV)", "setting": "EV protein Nrbp1 (Q99..)", "result": 9.54}, {"measurement": "RTV Direction Opposite dE?", "setting": "EV protein Nrbp1 (Q99J45)", "result": "yes"}, {"measurement": "Abs Z Score Sum (Geno + RTV)", "setting": "EV protein Otub1 (Q7TQ..)", "result": 11.30}, {"measurement": "RTV Direction Opposite dE?", "setting": "EV protein P09528, Ferritin heavy chain", "result": "yes"}, {"measurement": "RTV Direction Opposite dE?", "setting": "EV protein P27612, Phospholipase A-2-activating protein", "result": "yes"}, {"measurement": "Abs Z Score Sum (Geno + RTV)", "setting": "EV protein P48678 Prelamin-A C", "result": 7.44}, {"measurement": "RTV Direction Opposite dE?", "setting": "EV protein P61089, Ubiquitin-conjugating enzyme", "result": "yes"}, {"measurement": "Abs Z Score Sum (Geno + RTV)", "setting": "EV protein Pdia4 (P08003)", "result": 5.92}, {"measurement": "RTV Direction Opposite dE?", "setting": "EV protein Pdia4 (P08003)", "result": "yes"}, {"measurement": "Abs Z Score Sum (Geno + RTV)", "setting": "EV protein Penk (P22005)", "result": 4.31}, {"measurement": "RTV Direction Opposite dE?", "setting": "EV protein Penk (P22005)", "result": "yes"}, {"measurement": "Abs Z Score Sum (Geno + RTV)", "setting": "EV protein Plaa P27612", "result": 12.45}, {"measurement": "Abs Z Score Sum (Geno + RTV)", "setting": "EV protein Pld3 (Q35405)", "result": 7.47}, {"measurement": "RTV Direction Opposite dE?", "setting": "EV protein Pld3 (Q35405)", "result": "yes"}, {"measurement": "Abs Z Score Sum (Geno + RTV)", "setting": "EV protein Prep Q9QUR6", "result": 8.56}, {"measurement": "Abs Z Score Sum (Geno + RTV)", "setting": "EV protein Prpf8 (Q99PV0)", "result": 11.34}, {"measurement": "Abs Z Score Sum (Geno + RTV)", "setting": "EV protein Psmd1 (Q3TXS7)", "result": 7.84}, {"measurement": "Abs Z Score Sum (Geno + RTV)", "setting": "EV protein Pura (P42669)", "result": 6.04}, {"measurement": "RTV Direction Opposite dE?", "setting": "EV protein Pura (P42669)", "result": "yes"}, {"measurement": "RTV Direction Opposite dE?", "setting": "EV protein Q6X893, Choline transporter-like protein 1", "result": "yes"}, {"measurement": "RTV Direction Opposite dE?", "setting": "EV protein Q8BL97, Serine arginine-rich splicing factor 7", "result": "yes"}, {"measurement": "RTV Direction Opposite dE?", "setting": "EV protein Q8C878, NEDD8-activating enzyme E1 catalytic subunit", "result": "yes"}, {"measurement": "Abs Z Score Sum (Geno + RTV)", "setting": "EV protein Q8C878 NEDD8-activating enzyme .. subunit", "result": 14.97}, {"measurement": "Abs Z Score Sum (Geno + RTV)", "setting": "EV protein Q8CG19 Latent-transforming GF β-binding protein 1", "result": 6.03}, {"measurement": "Abs Z Score Sum (Geno + RTV)", "setting": "EV protein Q9D1M4 (Eukaryotic translation .. epsilon-1)", "result": 20.67}, {"measurement": "RTV Direction Opposite dE?", "setting": "EV protein Q9D1M4, Eukaryotic translation EF1 epsilon-1", "result": "yes"}, {"measurement": "RTV Direction Opposite dE?", "setting": "EV protein Q9FS30, Complement C1q tumor necrosis factor-related protein 3", "result": "yes"}, {"measurement": "RTV Direction Opposite dE?", "setting": "EV protein Q9Z1Z0, General vesicular transport factor p115", "result": "yes"}, {"measurement": "Abs Z Score Sum (Geno + RTV)", "setting": "EV protein Q9Z2X1 Heterogeneous nuclear ribonucleoprotein E", "result": 12.02}, {"measurement": "RTV Direction Opposite dE?", "setting": "EV protein Q78ZA7, Nucelosome assembly protein 1-like 4", "result": "yes"}, {"measurement": "Abs Z Score Sum (Geno + RTV)", "setting": "EV protein Q99KJ8 Dynactin subunit 2", "result": 13.94}, {"measurement": "Abs Z Score Sum (Geno + RTV)", "setting": "EV protein Q922B2 Aspartate--tRNA ligase", "result": 12.17}, {"measurement": "Abs Z Score Sum (Geno + RTV)", "setting": "EV protein Q01405 Protein transport protein .. 23A", "result": 13.20}, {"measurement": "Abs Z Score Sum (Geno + RTV)", "setting": "EV protein Q35737 Heterogeneous nuclear ribonucleoprotein H", "result": 8.31}, {"measurement": "Abs Z Score Sum (Geno + RTV)", "setting": "EV protein Q55023 Inositol monophosphatase 1", "result": 14.51}, {"measurement": "RTV Direction Opposite dE?", "setting": "EV protein Q60751, Insulin-like growth factor 1 receptor", "result": "yes"}, {"measurement": "Abs Z Score Sum (Geno + RTV)", "setting": "EV protein Q60972 Histone-binding protein RBBP4", "result": 18.10}, {"measurement": "RTV Direction Opposite dE?", "setting": "EV protein Q89051, Integral membrane protein 2B", "result": "yes"}, {"measurement": "Abs Z Score Sum (Geno + RTV)", "setting": "EV protein Qars (Q8BML9)", "result": 13.17}, {"measurement": "RTV Direction Opposite dE?", "setting": "EV protein Qars (Q8BML9)", "result": "yes"}, {"measurement": "Abs Z Score Sum (Geno + RTV)", "setting": "EV protein Rab6a (P35279)", "result": 6.80}, {"measurement": "RTV Direction Opposite dE?", "setting": "EV protein Rab6a (P35279)", "result": "yes"}, {"measurement": "RTV Direction Opposite dE?", "setting": "EV protein Rbbp4 (Q60972)", "result": "yes"}, {"measurement": "Abs Z Score Sum (Geno + RTV)", "setting": "EV protein Rpl22 (P67984)", "result": 7.66}, {"measurement": "RTV Direction Opposite dE?", "setting": "EV protein Rpl22 (P67984)", "result": "yes"}, {"measurement": "Abs Z Score Sum (Geno + RTV)", "setting": "EV protein S100a11 (P50543)", "result": 8.18}, {"measurement": "RTV Direction Opposite dE?", "setting": "EV protein S100a11 (P50543)", "result": "yes"}, {"measurement": "Abs Z Score Sum (Geno + RTV)", "setting": "EV protein Scarb2 (Q35114)", "result": 3.91}, {"measurement": "RTV Direction Opposite dE?", "setting": "EV protein Scarb2 (Q35114)", "result": "yes"}, {"measurement": "RTV Direction Opposite dE?", "setting": "EV protein Sec23a (Q01405)", "result": "yes"}, {"measurement": "Abs Z Score Sum (Geno + RTV)", "setting": "EV protein Sec31a (Q3..)", "result": 8.41}, {"measurement": "Abs Z Score Sum (Geno + RTV)", "setting": "EV protein Shrnt2 Q9CZN7", "result": 11.93}, {"measurement": "Abs Z Score Sum (Geno + RTV)", "setting": "EV protein Slc44a1 Q6X893", "result": 3.67}, {"measurement": "Abs Z Score Sum (Geno + RTV)", "setting": "EV protein Spp1 (P10923)", "result": 11.35}]}]}
